# Reference: US12252701B2, “Chimeric antigen receptor T cell therapy” (KITE PHARMA, INC., priority 2020, dated 2025)
# Read-outs that look alike come from different tables or passages of the source.
# How the values were obtained:
# [1] = cited from earlier work
# CD19 CAR T cells = test: CAR T cell cytokine production (Luminex) under CD19 K562, KIP-1 or CD2/3/28 stimulation; conditions: 72 h; for IC50: Homo sapiens, T-cell
# [2] = Clinical pharmacokinetic data converted to in vitro concentrations; conditions: human, in vivo
# Source text: Given the different potencies of the JAK inhibitors and different pharmacokinetic properties for each drug, it was sought to test each drug at a relevant range of physiological concentrations based on clinical dosing and reported pharmacokinetic data from repeat dose studies. Reported Cmax values in patient sera were converted to in vitro concentrations and adjusted for reported plasma protein binding.
# Nalm-6 luc = test: CAR-T cell killing assay (luciferase viability of tumor cells)
# CAR-T cells = test: CAR-T cell expansion assay (KIP-1 or CD3/CD28 stimulation); conditions: CD3/CD28
smiles,measurement,setting,value
C[C@@H]1C[C@H]2[C@@H]3CCC4=CC(=O)C=C[C@]4(C)[C@@]3(F)[C@@H](O)C[C@]2(C)[C@@]1(O)C(=O)CO [dexamethasone],Cmax,"[1]; human, in vivo",115 ng/mL
same,Protein binding,"[1]; plasma protein binding, reported",77%
same,"Suppression of cytokine production, MCP-1, % inh.",CD19 CAR T cells; CD3/CD28 stimulation,>80% inh.
same,"Suppression of cytokine production, TNFa, % inh.",CD19 CAR T cells; CD3/CD28 stimulation,>50% inh.
same,IC50,"CD19 CAR T cells; read-out: Suppression of cytokine production, GMCSF (IC50), CD3/CD28 stimulation, 72 h",> 10 µM
same,IC50,"CD19 CAR T cells; read-out: Suppression of cytokine production, GMCSF (IC50), K562-CD19 stimulation, 72 h",> 10 µM
same,IC50,"CD19 CAR T cells; read-out: Suppression of cytokine production, GzB (IC50), CD3/CD28 stimulation, 72 h",> 10 µM
same,IC50,"CD19 CAR T cells; read-out: Suppression of cytokine production, GzB (IC50), K562-CD19 stimulation, 72 h",> 10 µM
same,IC50,"CD19 CAR T cells; read-out: Suppression of cytokine production, GzB (IC50), KIP-1 stimulation, 72 h",> 10 µM
same,IC50,"CD19 CAR T cells; read-out: Suppression of cytokine production, IFNg (IC50), CD3/CD28 stimulation, 72 h",> 10 µM
same,IC50,"CD19 CAR T cells; read-out: Suppression of cytokine production, IFNg (IC50), K562-CD19 stimulation, 72 h",> 10 µM
same,IC50,"CD19 CAR T cells; read-out: Suppression of cytokine production, IFNg (IC50), KIP-1 stimulation, 72 h",> 10 µM
same,IC50,"CD19 CAR T cells; read-out: Suppression of cytokine production, IL-2Ra (IC50), CD3/CD28 stimulation, 72 h",> 10 µM
same,IC50,"CD19 CAR T cells; read-out: Suppression of cytokine production, IL-2Ra (IC50), K562-CD19 stimulation, 72 h",> 10 µM
same,IC50,"CD19 CAR T cells; read-out: Suppression of cytokine production, IL-8 (IC50), CD3/CD28 stimulation, 72 h",> 10 µM
same,IC50,"CD19 CAR T cells; read-out: Suppression of cytokine production, IL-8 (IC50), K562-CD19 stimulation, 72 h",> 10 µM
same,IC50,"CD19 CAR T cells; read-out: Suppression of cytokine production, IL-10 (IC50), CD3/CD28 stimulation, 72 h",> 10 µM
same,IC50,"CD19 CAR T cells; read-out: Suppression of cytokine production, MIG (IC50), CD3/CD28 stimulation, 72 h",> 10 µM
same,IC50,"CD19 CAR T cells; read-out: Suppression of cytokine production, MIP-1a (IC50), CD3/CD28 stimulation, 72 h",> 10 µM
same,IC50,"CD19 CAR T cells; read-out: Suppression of cytokine production, MIP-1a (IC50), K562-CD19 stimulation, 72 h",> 10 µM
same,IC50,"CD19 CAR T cells; read-out: Suppression of cytokine production, MIP-1a (IC50), KIP-1 stimulation, 72 h",> 10 µM
same,IC50,"CD19 CAR T cells; read-out: Suppression of cytokine production, MIP-1b (IC50), CD3/CD28 stimulation, 72 h",> 10 µM
same,IC50,"CD19 CAR T cells; read-out: Suppression of cytokine production, MIP-1b (IC50), K562-CD19 stimulation, 72 h",> 10 µM
same,IC50,"CD19 CAR T cells; read-out: Suppression of cytokine production, MIP-1b (IC50), KIP-1 stimulation, 72 h",> 10 µM
same,IC50,"CD19 CAR T cells; read-out: Suppression of cytokine production, Perforin (IC50), CD3/CD28 stimulation, 72 h",> 10 µM
same,IC50,"CD19 CAR T cells; read-out: Suppression of cytokine production, Perforin (IC50), K562-CD19 stimulation, 72 h",> 10 µM
same,IC50,"CD19 CAR T cells; read-out: Suppression of cytokine production, Perforin (IC50), KIP-1 stimulation, 72 h",> 10 µM
same,"Suppression of cytokine production, IL-6, % inh.",CD19 CAR T cells; KIP-1 stimulation,66% inh.
same,"Suppression of cytokine production, IL-10, % inh.",CD19 CAR T cells; KIP-1 stimulation,50% inh.
same,"Suppression of cytokine production, MCP-1, % inh.",CD19 CAR T cells; KIP-1 stimulation,66% inh.
same,"Suppression of cytokine production, MIG, % inh.",CD19 CAR T cells; KIP-1 stimulation,50% inh.
same,"Suppression of cytokine production, TNFa, % inh.",CD19 CAR T cells; KIP-1 stimulation,75% inh.
same,PPB adj. in Vitro concentration,[2],67.4 nM
same,clinically relevant dose level (in vitro concentration),[2],~70 nM
same,Mean tumor cell death (%),"Nalm-6 luc; E:T ratio 1:1, dose 10 nM",98.09%
same,Mean tumor cell death (%),"Nalm-6 luc; E:T ratio 1:1, dose 100 nM",92.30%
same,Mean tumor cell death (%),"Nalm-6 luc; E:T ratio 1:1, dose 250 nM",97.15%
same,Mean tumor cell death (%),"Nalm-6 luc; E:T ratio 1:3, dose 10 nM",34.66%
same,Mean tumor cell death (%),"Nalm-6 luc; E:T ratio 1:3, dose 100 nM",19.94%
same,Mean tumor cell death (%),"Nalm-6 luc; E:T ratio 1:3, dose 250 nM",20.38%
same,Mean tumor cell death (%),"Nalm-6 luc; E:T ratio 1:9, dose 10 nM",7.08%
same,Mean tumor cell death (%),"Nalm-6 luc; E:T ratio 1:9, dose 100 nM",3.02%
same,Mean tumor cell death (%),"Nalm-6 luc; E:T ratio 1:9, dose 250 nM",2.48%
same,% viability,"CAR-T cells; dose 50 nM, day 4",45.9%
same,% viability,"CAR-T cells; dose 50 nM, day 8",44.4%
same,% viability,"CAR-T cells; dose 50 nM, day 12",74.7%
same,% viability,"CAR-T cells; dose 100 nM, day 4",53.4%
same,% viability,"CAR-T cells; dose 100 nM, day 8",51.3%
same,% viability,"CAR-T cells; dose 100 nM, day 12",66.3%
